Laboratory results reported in paper PMC11695783 (Frontiers in Pharmacology, 2024).
In brackets after ≈: the same amount, converted by molar mass. Several values for one entry are separate records, joined by “and”; a condition that tells them apart may be missing. Identical values can stand only once. Like-named read-outs stand apart in the source and are kept apart here.

Tests used:
A549 = test system: A549; parameters: method as in PMID 26150841; conditions: A549, 8 μg/mL, compared with the control drugs; ref [30]; cited from earlier work
[1] = test system: Mycoplasma pneumoniae strain M129 (ATCC 29342); experiment: Susceptibility assay (broth microdilution MIC, MBC); format: cell-based; conditions: for MBC: M. pneumoniae strain M129; for MIC: M. pneumoniae strain M129, ≈96 h
Experimental: Mycoplasma pneumoniae strain M129 (ATCC 29342) was obtained from American Type Culture Collection (Manassas, VA, United States) and cultured at 37°C in the presence of 5% CO2 in the modified SP-4 liquid medium (pH 7.4) containing 2.1% (w/v) CM1166 mycoplasma broth base medium (Oxoid, Hants, United Kingdom), 20% (v/v) fetal bovine serum (FBS, Bioexplorer, CO, United States), 0.4% yeast extract (Oxoid), 0.55% (w/v) CMRL 1066 w/L-glutamine culture media powder (MyBioSource, San Diego, CA, United States), 1% D-glucose (Macklin) and 0.004% phenol red (Macklin). […] The solid medium is based on the above formula with the addition of 1% agar, and the characteristic fried egg-like colonies were used for experiments following incubation for 7 d on plates.
The broth microdilution MIC procedure was performed according to standardized methods for microdilution susceptibility testing of mycoplasma species ([Waites et al., 2012]). […] The concentration of organisms should be determined to approximately 10^6 CFU/mL prior to inoculation into 96-well plates. Due to the action of phenol red, the acidic metabolites of microbial growth can turn the medium yellow. […] The MBC assays were performed based on MICs following endpoint reading and the liquid in the high-concentration wells was removed for bacterial counting.

[2] = Pharmacokinetic studies in mice (intravenous and intramuscular, plasma, HPLC-MS/MS); format: in vivo, BALB/c mice; parameters: AUClast / AUCall / AUCINF_obs / AUCINF_pred / AUCINFobs: concentration or dose not given beside the values; conditions: for F / Ka / Kel / T1/2ka / T1/2kel / Tmax / Cmax / AUC0-∞ / Cl / Vd / C0: mice; for AUCINFobs / AUClast / AUClast/AUCINFobs ratio / AUC0-t/AUC0-∞ ratio (AV): non-compartment model; for AUCINFobs / AUClast / AUClast/AUCINFobs ratio: individual mice; for AUC0-t/AUC0-∞ ratio (AV): mean
Experimental: Pharmacokinetic experimental procedures of compound 16C were measured according to previous reports with some modifications ([Wang et al., 2022]). In brief, BALB/c mice were divided into two groups of eight mice each; one group was injected intravenously and the other was injected intramuscularly with compound 16C at a dose of 10 mg/kg. The dose was based on previous studies of novel pleuromutilin derivatives ([Jin et al., 2019]; [Wang et al., 2022]). Meanwhile, the dose of tiamulin approved by the European Union for intramuscular administration is 10–20 mg/kg ([EMA, 1999]). The volume of the injection was 0.1 mL/10 g. The compound 16C formulation was a filtered solution in 5% DMSO, 5% Tween-80, and 90% normal saline. Blood was obtained from eight mice via the ocular venous plexus at 0.083, 0.167, 0.25, 0.334, 0.5, 0.75, 1, 1.5, 2, 3, 4, 6, 8, and 12 h following tail intravenous or thigh Intramuscular injection. A glass capillary with a diameter of 0.3 mm was inserted into the outer canthus of the mouse, and 200 μL blood was collected using a 1.5 mL anticoagulant centrifuge tube. The blood was centrifuged at 3,000 rpm for 10 min to obtain plasma. 100 μL of plasma was aspirated for drug concentration detection, and eight parallel samples from different mice were obtained at each time point.
All pharmacokinetic experimental samples and method validation samples were added with 4 times the volume of acetonitrile and shaken for 1 min, centrifuged at high speed at 13,000× g for 10 min, and the supernatants were taken and filtered to detect the drug concentration. Some samples with high concentrations were diluted to the linear range prior to analysis.
The extracted samples were analyzed using a high-performance liquid chromatography-tandem mass spectrometry (HPLC-MS/MS) system (Agilent, Santa Clara, CA, United States) 1200 HPLC and Applied Biosystems (Waltham, MA, United States) API 4000 mass spectrometer). HPLC-MS/MS analysis using a Zorbax Eclipse XDB-C18 (4.6 × 50 mm, 3.5 μm) column (Agilent). The mobile phase A (acetonitrile) and B (water) were applied as a gradient as follows: 0–3 min: 15%–95% A and maintain from 3 min to 5 min at 95% A. 5–5.1 min: 95%–15% A and maintain from 5.1 to 10 min at 15% A. Flow rate: 500 μL/min; column temperature: 30°C and injection volume: 4 μL. The electrospray ionization (ESI) source of the mass spectrometer was operated in […], with the following ion source parameters: ion spray voltage 4,500 V, collision gas 7 psi, ion source gas 1 55 psi, ion source gas 2 40 psi, curtain gas 20 psi, source temperature 600°C. The precursor ion m/z of Compound 16C was 633.3, and the product ions m/z were 272.0 (quantifier) 286.9 and 313.0. Declustering potentials (DP) were 140, 140, and 144 V, respectively; entrance potential (EP) was 10 V; collision energy (CE) was 55, 46, and 15 V, respectively; and collision cell exit potential (CXP) was 14 V.
[…] Pharmacokinetic parameters include time to maximum concentration (Tmax), maximum concentration (Cmax), the area under the plasma concentration–time curve (AUC0-∞), clearance rate (CL), the apparent volume of distribution (Vd), bioavailability (F), elimination half-life (T1/2kel) and absorption half-life (T1/2ka).

[3] = test system: bronchial epithelial cell line 16HBE; parameters: method as in PMID 26150841; conditions: ref [30]; cited from earlier work
mice = test system: mice; parameters: method as in EMA, 1999; conditions: administered intravenously, ref EMA, 1999; cited from earlier work

Q: Which results are given for `C=CC1(C)CC(OC(=O)CSc2ccc(NC(=O)Cc3ccc([N+](=O)[O-])cc3)cc2)C2(C)C(C)CCC3(CCC(=O)C32)C(C)C1O` (centres unmarked) [compound 16C, 22–((4-((4-nitrophenyl)acetamido)phenyl)thio)deoxypleuromutilin]?
A: influence on cell viability (A549): only slight influences on the viability; MBC [1]: 7.812 ng/mL (≈ 0.012 µM); MIC [1]: 1.953 ng/mL (≈ 0.00301 µM); F ([2]; IM 10 mg/kg): 71.29 ± 19.34%; Ka ([2]; IM 10 mg/kg): 14.41 ± 7.76 h⁻¹; Kel ([2]; IM 10 mg/kg): 0.33 ± 0.07 h⁻¹; T1/2ka ([2]; IM 10 mg/kg): 3.6 ± 1.8 min; T1/2kel ([2]; IM 10 mg/kg): 2.20 h and 2.20 ± 0.52 h; Tmax ([2]; IM 10 mg/kg): 0.24 ± 0.09 h; Cmax ([2]; IM 10 mg/kg, n = 8): 500 ± 110 ng/mL; AUC0-∞ ([2]; IM 10 mg/kg, two-compartmental model): 1070 ± 230 ng·h/mL; T1/2ka ([2]; IM 10 mg/kg, listed as Compound 16C): 3.6 min; AUCINFobs ([2]; IM): 805.258 and 1373.07 and 1092.7 and 1076.67 and 1204.87 and 1450.76 and 1023.1 and 1087.9; AUClast ([2]; IM): 801.322 and 1354.01 and 1070.85 and 1055.33 and 1188.66 and 1432.45 and 925.896 and 1050.1; AUClast/AUCINFobs ratio ([2]; IM): 99.5113% and 98.6117% and 98.0006% and 98.0177% and 98.6551% and 98.7381% and 90.4989% and 96.5252%; AUC0-t/AUC0-∞ ratio (AV) ([2]; IM): 97.32% and 97.3198%; Cl ([2]; IV 10 mg/kg): 112 ± 27.8 mL/min/kg; Kel ([2]; IV 10 mg/kg): 0.41 ± 0.14 h⁻¹; Vd ([2]; IV 10 mg/kg): 3.55 ± 1.32 L/kg; C0 ([2]; IV 10 mg/kg, n = 8): 5580 ± 1250 ng/mL; AUC0-∞ ([2]; IV 10 mg/kg, two-compartmental model): 1560 ± 370 ng·h/mL; T1/2kel ([2]; IV 10 mg/kg, 10 mg/kg): 1.89 h and 1.89 ± 0.61 h; AUCINFobs ([2]; IV): 1454.8 and 1871.31 and 1501.72 and 1496.6 and 2594.18 and 1752.1 and 2317.09 and 1731; AUClast ([2]; IV): 1441.26 and 1869.35 and 1488.47 and 1490.96 and 2574.6 and 1734.84 and 2287.49 and 1712.29; AUClast/AUCINFobs ratio ([2]; IV): 99.0694% and 99.8954% and 99.1179% and 99.6229% and 99.2455% and 99.0149% and 98.7227% and 98.9189%; AUC0-t/AUC0-∞ ratio (AV) ([2]; IV): 99.20% and 99.2009%; AUC0-∞ ([2]; IM(10mg/kg), n=8): 1070 ± 230 ng·h/mL; Cmax ([2]; IM(10mg/kg), n=8): 500 ± 110 ng/mL; F ([2]; IM(10mg/kg), n=8): 71.29±19.34%; Ka ([2]; IM(10mg/kg), n=8): 14.41 ± 7.76 h⁻¹; Kel ([2]; IM(10mg/kg), n=8): 0.33 ± 0.07 h⁻¹; T1/2ka ([2]; IM(10mg/kg), n=8): 3.6 ± 1.8 min; T1/2kel ([2]; IM(10mg/kg), n=8): 2.20 ± 0.52 h; Tmax ([2]; IM(10mg/kg), n=8): 0.24 ± 0.09 h; AUC0-∞ ([2]; IV(10mg/kg), n=8): 1560 ± 370 ng·h/mL; C0 ([2]; IV(10mg/kg), n=8): 5580 ± 1250 ng/mL; Cl ([2]; IV(10mg/kg), n=8): 112 ± 27.8 mL/min/kg; Kel ([2]; IV(10mg/kg), n=8): 0.41 ± 0.14 h⁻¹; T1/2kel ([2]; IV(10mg/kg), n=8): 1.89 ± 0.61 h; Vd ([2]; IV(10mg/kg), n=8): 3.55 ± 1.32 L/kg; influence on cell viability [3]: slightly more affected

Q: With `C=C[C@]1(C)C[C@@H](OC(=O)CSCCN(CC)CC)[C@]2(C)[C@H](C)CC[C@]3(CCC(=O)[C@H]32)[C@@H](C)[C@@H]1O` [tiamulin, Tiamulin, reference compound] as the molecule, how does the MIC ([1]; read-out: MIC) read?
A: The MIC was 7.81 ng/mL (≈ 0.0158 µM).

Q: And the MBC ([1]; read-out: MBC)?
A: The MBC was 62.5 ng/mL (≈ 0.127 µM).

Q: And the LD50 (mice)?
A: Its LD50 is 50 mg/kg.
